This passage reports melting point results from a melting point compilation (Tetko et al.).

As for `NS(=O)(=O)c1cc2c(cc1Cl)N=C(CSCc1ccccc1)NS2(=O)=O`, the melting point – broadly, the temperature, or range, at which the solid turns liquid – was determined as 232 °C.

The compound `Cc1ccc2cc3c(ccc4ccccc43)cc2c1` displayed a melting point of 152 °C.

With `CC(=O)Nc1ncc([N+](=O)[O-])s1`, the melting point amounted to 264 °C.

With `CC=CCCl`, the melting point is -65 °C.

For the compound `CC(=O)c1cc(Cl)ccc1Cl`, the melting point is 12 °C.

Compound `CCC(C)C(N)P(=O)(O)O` (stereo unspecified) showed a melting point of 274 °C.

In turn, `C=CCC1(O)CCC2C3CCC4=CC(=O)CCC4=C3C=CC21C` (stereo unspecified) displayed a melting point of 120 °C.

`N#Cc1ccc(F)cc1[N+](=O)[O-]` showed a melting point of 71 to 73 °C.

Compound `O=C(CBr)c1cc2ccccc2o1` came in with a melting point of 89 to 90 °C.

The compound `CC(=O)OCCOCCOC(C)=O` yielded a melting point of 18 °C.

In the case of `Cc1ncc(COP(=O)(O)O)c(C=O)c1O`, the melting point stood at 255 °C.

`CC(=O)C(N=Nc1ccccc1)C(C)=O` displayed a melting point of 87 °C.

The compound `Cc1cc2ccccc2cc1CBr` registered a melting point of 88 to 102 °C.

On to `CCCCC(C#N)(Cn1cncn1)c1ccc(Cl)cc1` (stereo unspecified), for which the melting point came to 70.9 °C.

As for `O=c1ccc2cc(OC3OC(CO)C(O)C(O)C3O)c(O)cc2o1` (stereo unspecified), the melting point is 205 °C.

In turn, `Cc1ccc2cc(F)ccc2c1` showed a melting point of 73 to 74 °C.

In turn, `COP(=O)(OC)SCn1c(=O)oc2cc(Cl)cnc21` gave a melting point of 89 °C.

Compound `O=C(O)CCn1ccnc1` came in with a melting point of 147 to 149 °C.

`ON=C(c1ccc(F)cc1)c1ccc(F)cc1` displayed a melting point of 140 °C.

In turn, `CC(=O)OCC1OCC(OC(C)=O)(C2C=Nc3c2ncn(C2(OC(C)=O)COC(COC(C)=O)C2OC(C)=O)c3=O)C1OC(C)=O` (stereo unspecified) returned a melting point of 76 °C.

`CC(=O)Nc1ccc(C#N)cc1C(F)(F)F` had a melting point of 169 to 171 °C.

Consider `OCc1c(F)ccc(F)c1F`, for which the melting point stood at 46 °C.

`OCc1ccc(Oc2ccccc2)cc1`: the melting point was 55 to 56 °C.

Turning to `N#CCCNCC(=O)O`, the melting point lay within 188 to 193 °C.

Turning to `c1ccc(-c2nsc(N3CCNCC3)n2)cc1`, the melting point lay within 93 to 94 °C.

In turn, `c1cc2c3c(ccc2c2c1CC2)CC3` came in with a melting point of 163 °C.

In the case of `Nc1ncccc1C(=O)O`, the melting point fell in the range of 295 to 297 °C.

Regarding `O=C1c2cccc([N+](=O)[O-])c2C(=O)c2cccc([N+](=O)[O-])c21`, the melting point was determined as 385 °C.

The compound `Fc1c(F)c(Cl)c(F)c(F)c1S` had a melting point of 47 to 52 °C.

`O=[N+]([O-])c1ccc(SCl)c([N+](=O)[O-])c1` displayed a melting point of 99 °C.

Consider `CCOC(=O)c1c(C)n(OC)c2ccc3nonc3c12`, for which the melting point was 147 to 149 °C.

`Cc1ccccc1CC(NC(=O)OC(C)(C)C)C(=O)O` (racemic) had a melting point of 125 to 129 °C.

On to `Cc1nnc2sc(SCc3ccccc3)nn2c1=O`, for which the melting point was 171 to 172 °C.

Take `CCCCCCCCC1CCCCC1`: the melting point is -20 °C.

For the compound `Nc1ccc(SSc2ccc(N)cc2)cc1`, the melting point is 77 °C.

`Cn1cc(-c2ccccc2)c(=O)c(-c2cccc(C(F)(F)F)c2)c1` came in with a melting point of 154 °C.

Regarding `N#Cc1ccc(N2CCCCC2)cc1`, the melting point was 51 to 53 °C.

As to `COc1cc(Cc2nccc3cc(OC)c(O)cc23)ccc1O`, the melting point was found to be 209 °C.

Turning to `OC1(c2ccccc2)c2ccccc2-c2ccccc21`, the melting point lay in the range of 107 to 110 °C.

For the compound `O=C(O)c1csc(-c2cccc(Cl)c2Cl)n1`, the melting point lay within 233 to 234 °C.

`Clc1cc(Cl)nc(Cc2ccccc2)n1`: the melting point lay within 56 to 57 °C.

The compound `O=C1OC(c2ccccc2)=NC1=Cc1cc([N+](=O)[O-])ccc1O` came in with a melting point of 231 to 232 °C.

The compound `O=c1on(-c2ccccc2)c(Br)c1-c1ccccc1` registered a melting point of 165 to 166 °C.

`CCOc1ccc(-c2nnc3n2NCS3)cc1` displayed a melting point of 118 to 120 °C.

As for `O=C(Cl)/C=C/c1ccc(/C=C/C(=O)Cl)cc1`, the melting point worked out at 171 °C.

The compound `N#Cc1c(NC(=O)CN2CCOCC2)sc2c1CCCC2` displayed a melting point of 178 to 179 °C.

In turn, `CCCCCCCS` displayed a melting point of -43 °C.

As to `NNc1cc(C(F)(F)F)cc(C(F)(F)F)c1`, the melting point turned out to be 82 °C.

`NC(=O)OCC(COC(N)=O)c1ccccc1` showed a melting point of 151 °C.

As to `CCOC(=O)CC(C(C)=O)C(=O)OCC` (stereo unspecified), the melting point is -8 °C.

For `O=[N+]([O-])OC1COC2C(O[N+](=O)[O-])COC12` (stereo unspecified), the melting point came to 61 °C.

In the case of `O=C(O)C(Cl)Cl`, the melting point worked out at 13.5 °C.

The compound `CC1CCC(C(C)C)C(OC(=O)/C(=C/c2ccccc2)Cc2ccccc2)C1` (stereo unspecified) returned a melting point of 64 to 65 °C.

Regarding `COC(=O)c1ccc(I)c([N+](=O)[O-])c1`, the melting point was determined as 102 °C.

`CC1CC2C3CCC4=CC(=O)C=CC4(C)C3(F)C(O)CC2(C)C1C(=O)CO` (stereo unspecified) yielded a melting point of 217 °C.

`c1ccc2c(c1)ccc1nc3c(ccc4ccccc43)cc12`: the melting point was 226 °C.

On to `CCOC(=O)Cn1c(=O)sc2cccc(Cl)c21`, for which the melting point is 79.2 °C.

The compound `CC(=O)OC1CC(=O)OC1=O` (stereo unspecified) had a melting point of 55 °C.

Regarding `CC(O)CCO` (stereo unspecified), the melting point is -54 °C.

As to `O=C1CC2CCCCC2C1` (stereo unspecified), the melting point is 10 °C.

`CC(=O)N(C)C(C)=O` yielded a melting point of -25 °C.

Consider `O=[N+]([O-])c1ccc(NN=Cc2cccc3c(Br)cccc23)cc1`, for which the melting point was in the range of 267 to 268 °C.

Consider `O=C(c1ccc2ccccc2c1)c1noc(-c2ccc([N+](=O)[O-])cc2)c1S(=O)(=O)c1ccccc1`, for which the melting point was 131 °C.

With `OCC1(O)OCC(O)C(O)C1O` (stereo unspecified), the melting point came out at 119 °C.

For `CC(=O)OC1(c2ccccc2)Cc2ccccc21` (stereo unspecified), the melting point turned out to be 76 °C.

For `COC(=O)CCC(C)C1CCC2C3CCC4CC(=O)CCC4(C)C3CCC12C` (stereo unspecified), the melting point lay within 116 to 118 °C.

Compound `CC12CCC(O)(CC1)CC2=O` gave a melting point of 55 to 56 °C.

Take `CCCCOc1ccc(N)cc1[N+](=O)[O-]`: the melting point was in the range of 60 to 64 °C.

`COC(=O)C1Nc2ccccc2C1(C)C` (stereo unspecified): the melting point was in the range of 168 to 170 °C.

Compound `COc1ccc2c(c1)[nH]c1c(C)nccc12` registered a melting point of 273 °C.

The compound `CC(C)(C)OC(=O)N1Cc2[nH]c3ccccc3c2C[C@H]1C(=O)O` came in with a melting point of 286 to 291 °C.

`O=C(OC(Cl)(Cl)Cl)C(Cl)(Cl)Cl` gave a melting point of 34 °C.

Compound `CCCCCCCCC(C(=O)O)C(=O)O` yielded a melting point of 116 °C.

In turn, `COC(=O)c1ccc(N)c(Cl)c1` returned a melting point of 113 °C.

`N#CCCNC1CCCCC1` displayed a melting point of 122 to 124 °C.

Regarding `O=C(O)CC(CC(=O)O)c1ccc(C(F)(F)F)cc1`, the melting point fell in the range of 166 to 168 °C.

Compound `O=C(O)c1cncc(C#Cc2ccccc2)c1` came in with a melting point of 245 to 247 °C.

`CC(=O)O[C@@H]1CC[C@@]2(C)C(CC[C@@H]3[C@@H]2CC[C@@]2(C)[C@H]3CC[C@]2(O)/C=C/c2ccccc2)C1` (stereo partly specified) yielded a melting point of 160 to 164 °C.

As to `Nc1nn2c(C(F)(F)F)cc(=O)[nH]c2c1/N=N/c1ccc(O)cc1`, the melting point turned out to be 268 °C.

In turn, `COc1c(C(=O)Cl)csc1Br` showed a melting point of 79 to 82 °C.

Consider `NC(=S)c1ccc[nH]1`, for which the melting point lay in the range of 161 to 163 °C.

With `CCCN(CCCl)c1c([N+](=O)[O-])cc(C(F)(F)F)cc1[N+](=O)[O-]`, the melting point was 42 °C.

As for `CCOc1ccc(CO)cc1OC`, the melting point lay within 54 to 59 °C.

Consider `ICC(CI)(CI)CI`, for which the melting point was determined as 225 °C.

`O=C1NC(=O)C(=NNc2ccc(Cl)cc2)C(=O)N1`: the melting point was determined as 353 °C.

Take `[N-]=[N+]=NC(=O)C=Cc1ccc(C=CC(=O)N=[N+]=[N-])cc1`: the melting point turned out to be 80 °C.

`CC(=O)N(C)c1ccccc1C` showed a melting point of 55.5 °C.

As to `NCc1ccc2c(Br)cccc2c1`, the melting point lay within 111 to 112 °C.

Compound `CCC(Br)(CC)C(N)=O` gave a melting point of 67 °C.

As to `Cc1c2ccccc2c(C)c2ccccc12`, the melting point is 183 °C.

`O=C(Cl)c1cccc2c1OCCCO2`: the melting point lay in the range of 36 to 38 °C.

In turn, `CC/C=C\C/C=C\C/C=C\CCCCCCCC(=O)O` returned a melting point of -16.5 °C.

In turn, `Cc1cccc(C)c1NC(=O)c1cnc(C(C)(C)C)cn1` displayed a melting point of 85 °C.

`Cc1cnc(Cl)c(Br)c1`: the melting point fell in the range of 66 to 68 °C.

In the case of `COC(=O)C(c1ccccc1)c1ccccc1`, the melting point is 60 °C.

`NC(=O)c1sccc1Cl` yielded a melting point of 105 to 107 °C.

`C=CCN1C(=O)C(CC(C)C)NC1=S` (stereo unspecified) registered a melting point of 210 °C.

`Nc1ccc(Nc2ccccc2)cc1` showed a melting point of 74 °C.

`NC(=O)CC(N)=O` showed a melting point of 169 °C.

Turning to `NS(=O)(=O)c1ccccc1Cl`, the melting point was 190 °C.

With `O=C(C=P(c1ccccc1)(c1ccccc1)c1ccccc1)OCc1ccccc1`, the melting point lay in the range of 120 to 127 °C.

For the compound `O=[N+]([O-])OCC(CO[N+](=O)[O-])O[N+](=O)[O-]`, the melting point was found to be 14 °C.

In turn, `Cc1nc(/C(C#N)=N/Nc2ccccc2Cl)sc1/N=N/c1ccc(Br)cc1` had a melting point of 241 °C.

Turning to `CC1(C)OCC(C2OC3OC(C)(C)OC3C2O)O1` (stereo unspecified), the melting point is 109 °C.

Compound `O=[N+]([O-])c1cc2nccnc2cc1[N+](=O)[O-]` yielded a melting point of 188 to 191 °C.

For the compound `CCCOC(=O)C(=O)OCCC`, the melting point was -44.3 °C.

In turn, `COC(=O)[C@@H]1C[C@@H]2CCCN2[C@@]12C(=O)c1cccc3cccc2c13` registered a melting point of 145 °C.

In the case of `N#Cc1ccc(C=Cc2cccc(C=Cc3ccc(C#N)cc3[N+](=O)[O-])c2)c([N+](=O)[O-])c1`, the melting point was determined as 298 °C.

In turn, `O=C(ON=C(Cc1ccccc1)c1ccccc1)c1ccccc1` gave a melting point of 92 °C.

Regarding `O=C1CCc2ccccc2O1`, the melting point turned out to be 25 °C.

`CCCCCC(O)CC` (racemic) returned a melting point of -16 °C.
